Experimental data taken from US10391101B2, “Derivatives of 7-fluoro-8-chloro-5H-dibenzo [B,E,] [1,4] diazepine and use thereof” (VALENTEK LLC, priority 2014, dated 2019).

Tests used:
[1] = Sub-chronic toxicity, morphological parameters of blood (neutrophil kinetics); format: in vivo; settings: rats, intragastric 5 mg/kg daily for 28 days
Description: The positive effect of the introduction of fluorine has been observed in pre-clinical studies of sub-chronic toxicity. […]. Increase in the number of neutrophils has been observed among rats after administration of aminoglutethimide, which also involves a high risk of agranulocytosis (Ng, W. et. al., Chem Res Toxicol, 2013, 26, 1272-81). Thus changes in the kinetics of neutrophils after intake of the medication can serve as a biomarker to predict the risk of agranulocytosis.
The neutrophil kinetics has been studied within comparative tests of sub-chronic toxicity. Studies have been conducted using rats upon intragastric administration of the substance at a dose of 5 mg/kg. The test substances were administered daily for 28 days. Each experimental group was composed of 10 animals of each sex.

[2] = Metabolism and distribution of fluoroclozapine in tissues; settings: rats, single oral fluoroclozapine 10 mg/kg
[3] = tested on: family of adrenergic receptors; experiment: Panel of G-protein-coupled receptors, adrenergic receptors; settings: GPCR panel
Description: In conjunction with the results of preliminary toxicological studies, the data indicates a reduction in the risk of autonomic dysfunctions, such as tachysystole, orthostatism, accommodation disorder, dysfunction of gastrointestinal tract and urination, weight gain, lack of coordination of muscle movements.

D2 dopamine receptors = D2 dopamine receptors (Homo sapiens, UniProt P14416); experiment: cell-based; settings: determined by IC50 values in the set-up of antagonism
Method: (§1) The response on cells expressing D2 receptors was determined according to the change in the cell conductibility induced by redistribution of intracellular calcium. For D4 receptor the level of second messenger—cAMP was taken as the criterion.

[4] = Sedation study, total distance traveled; settings: CF-1 mice
D4 dopamine receptors = target: T1, D4 dopamine receptors (Homo sapiens, UniProt P21917); experiment: D4 dopamine receptor antagonism, Kb from IC50 (cAMP level); format: cell-based; settings: for Kb: determined by IC50 values in the set-up of antagonism; for Therapeutic window (Kb, D2/Kb, D4): ratio of the applicant's Kb values
T1 sequence (P21917 1-419): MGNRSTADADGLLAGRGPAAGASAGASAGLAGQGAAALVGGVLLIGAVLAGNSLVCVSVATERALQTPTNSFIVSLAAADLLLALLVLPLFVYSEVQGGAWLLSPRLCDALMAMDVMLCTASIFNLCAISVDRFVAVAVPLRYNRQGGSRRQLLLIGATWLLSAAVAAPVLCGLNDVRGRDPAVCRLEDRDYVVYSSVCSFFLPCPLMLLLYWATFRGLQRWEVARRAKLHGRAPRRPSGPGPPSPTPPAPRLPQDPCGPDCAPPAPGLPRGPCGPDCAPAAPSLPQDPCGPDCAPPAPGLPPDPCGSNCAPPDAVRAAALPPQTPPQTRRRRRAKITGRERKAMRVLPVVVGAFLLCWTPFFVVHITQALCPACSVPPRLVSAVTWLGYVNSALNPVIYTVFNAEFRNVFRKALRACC
Method: as §1

H4 receptor = H4 receptor (Homo sapiens, UniProt Q9H3N8); experiment: H4 histamine receptor functional experiment, agonism set-up (cell conductibility); format: cell-based
Method: (§2) The functional activity of compounds on the H4 receptor was determined according to the change in the cell conductibility induced by redistribution of intracellular calcium. The activity for H1 receptor was determined according to the fluorescence of Fluo-4 NW indicator introduced into cells induced by the change in Ca2+ ion concentration in the cytosol.
(§3) Functional experiments were performed in the set-up of agonism and antagonism. In the set-up of agonism the test substance was added directly to the cells expressing the receptor and was determined as the dependence of the response intensity on the substance concentration. Concentration at which the half-peak response (EC50) could be reached served as a measure of activity of agonists.
(§4) In the set-up of antagonism, the ability of test substances to block the action of agonists was assessed. For this purpose, cells were incubated with the test substances, then the reference agonists were added in the system and the functional response was determined.

H1 receptor = H1 receptor (Homo sapiens, UniProt P35367); experiment: H1 histamine receptor functional experiment, antagonism set-up (Fluo-4 NW Ca2+ fluorescence); format: cell-based
Method: as §2, §3, §4

M1 receptors = target: T2, M1 receptors (Homo sapiens, UniProt P11229); experiment: M1 receptor activation functional study (Fluo-4 NW Ca2+ fluorescence); format: cell-based; settings: concentration-response curves, FIG. 2
T2 sequence (P11229 1-460): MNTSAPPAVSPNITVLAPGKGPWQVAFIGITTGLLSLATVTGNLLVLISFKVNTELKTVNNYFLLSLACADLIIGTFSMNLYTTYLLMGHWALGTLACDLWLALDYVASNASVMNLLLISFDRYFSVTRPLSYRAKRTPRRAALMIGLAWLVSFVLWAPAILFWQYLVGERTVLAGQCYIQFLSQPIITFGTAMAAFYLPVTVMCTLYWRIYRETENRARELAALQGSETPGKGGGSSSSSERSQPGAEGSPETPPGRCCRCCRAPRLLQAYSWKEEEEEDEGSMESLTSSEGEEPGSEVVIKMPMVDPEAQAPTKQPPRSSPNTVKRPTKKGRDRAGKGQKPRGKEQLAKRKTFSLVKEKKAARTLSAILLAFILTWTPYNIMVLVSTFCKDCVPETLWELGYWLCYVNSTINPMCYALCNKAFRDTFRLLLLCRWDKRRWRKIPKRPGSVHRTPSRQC
Method: The activity was determined according to the fluorescence of Fluo-4 NW indicator introduced into cells induced by the change in Ca2+ ion concentration in the cytosol.

M4 muscarinic receptor = target: T3, M4 muscarinic receptor (Homo sapiens, UniProt P08173); experiment: cell-based; settings: for EC50: M4, agonism set-up; for IC50: M4, antagonism set-up
T3 sequence (P08173 1-479): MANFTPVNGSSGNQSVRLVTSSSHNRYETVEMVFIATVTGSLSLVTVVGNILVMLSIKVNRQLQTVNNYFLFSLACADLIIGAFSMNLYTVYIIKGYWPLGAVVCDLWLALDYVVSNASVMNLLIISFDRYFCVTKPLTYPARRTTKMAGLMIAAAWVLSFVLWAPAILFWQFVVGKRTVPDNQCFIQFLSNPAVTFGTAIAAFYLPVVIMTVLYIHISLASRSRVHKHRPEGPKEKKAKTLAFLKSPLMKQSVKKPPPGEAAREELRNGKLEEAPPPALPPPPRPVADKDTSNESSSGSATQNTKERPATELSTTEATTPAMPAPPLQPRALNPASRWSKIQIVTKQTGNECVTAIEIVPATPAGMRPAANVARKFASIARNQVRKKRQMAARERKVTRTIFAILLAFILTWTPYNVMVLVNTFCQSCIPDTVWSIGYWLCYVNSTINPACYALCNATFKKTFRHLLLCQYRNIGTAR
Method: as §3, §4
The curves of dependence of functional response on the concentration of compounds for the receptor were made; the level of second messenger—cAMP determined according to the fluorescence after the lysis of cell expressing the receptor was taken as a criterion.

[5] = Prepulse inhibition of acoustic startle response, ketamine-induced deficit; settings: mice, ketamine 50 mg/kg i.p.
[6] = 5-oxytriptophan hyperkinesia (head twitches); format: in vivo; settings: mice, intragastric 1.0-10.0 mg/kg, 5-oxytriptophan 300 mg/kg i.p.
Method: It is known that the precursor of serotonin (5-oxytriptophan, 5-OT) causes a specific hyperkinesia in mice in the form of head-twitching with average duration of 30-60 minutes, which is explained by the activation of serotonergic system of the CNS. […] Each experimental group included 10 male mice weighing 20-22 g. The test substances were administered intragastrically at 1.0, 2.5, 5.0 and 10.0 mg/kg 30 minutes before the intraperitoneal administration of 5-oxytriptophan at a dose of 300 mg/kg. We counted the number of head twitches per 1 minute at intervals of 10 minutes during 60 minutes.

Sequence of H4 receptor (Q9H3N8 whole entry): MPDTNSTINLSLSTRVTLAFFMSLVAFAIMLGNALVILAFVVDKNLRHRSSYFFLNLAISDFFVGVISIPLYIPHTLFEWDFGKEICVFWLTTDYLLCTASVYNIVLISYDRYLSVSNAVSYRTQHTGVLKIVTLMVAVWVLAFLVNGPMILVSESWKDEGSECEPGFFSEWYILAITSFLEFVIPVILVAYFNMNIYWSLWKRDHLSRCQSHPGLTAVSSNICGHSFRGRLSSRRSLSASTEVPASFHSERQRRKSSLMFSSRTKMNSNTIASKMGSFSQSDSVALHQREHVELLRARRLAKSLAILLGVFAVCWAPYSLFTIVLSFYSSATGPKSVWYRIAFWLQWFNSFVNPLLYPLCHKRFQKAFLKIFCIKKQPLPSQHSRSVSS
Sequence of D2 dopamine receptors (P14416 whole entry): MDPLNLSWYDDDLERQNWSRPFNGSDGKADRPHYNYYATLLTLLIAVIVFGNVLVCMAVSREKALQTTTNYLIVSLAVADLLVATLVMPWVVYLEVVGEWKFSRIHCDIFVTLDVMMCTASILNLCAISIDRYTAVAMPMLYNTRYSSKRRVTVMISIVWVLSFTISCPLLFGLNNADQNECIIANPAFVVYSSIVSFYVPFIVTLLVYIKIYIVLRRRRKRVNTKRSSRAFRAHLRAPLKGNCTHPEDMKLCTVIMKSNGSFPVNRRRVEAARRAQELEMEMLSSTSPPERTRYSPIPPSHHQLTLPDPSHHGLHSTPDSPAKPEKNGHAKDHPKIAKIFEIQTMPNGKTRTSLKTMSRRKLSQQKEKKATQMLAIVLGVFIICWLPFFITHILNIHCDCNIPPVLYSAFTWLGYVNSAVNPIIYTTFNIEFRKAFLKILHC
Sequence of H1 receptor (P35367 whole entry): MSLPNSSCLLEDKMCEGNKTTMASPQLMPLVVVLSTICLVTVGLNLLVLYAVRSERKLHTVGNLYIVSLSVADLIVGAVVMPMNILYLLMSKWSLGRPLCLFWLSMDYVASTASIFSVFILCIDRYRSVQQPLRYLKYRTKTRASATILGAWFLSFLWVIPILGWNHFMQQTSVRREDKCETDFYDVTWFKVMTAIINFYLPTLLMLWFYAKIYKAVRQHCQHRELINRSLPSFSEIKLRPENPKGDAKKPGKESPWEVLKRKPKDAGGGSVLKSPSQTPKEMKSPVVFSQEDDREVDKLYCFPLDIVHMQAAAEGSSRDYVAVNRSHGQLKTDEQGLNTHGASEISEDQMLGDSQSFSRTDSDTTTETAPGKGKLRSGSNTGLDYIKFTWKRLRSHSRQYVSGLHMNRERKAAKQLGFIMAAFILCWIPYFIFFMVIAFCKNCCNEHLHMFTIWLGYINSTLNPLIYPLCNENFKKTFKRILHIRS

| SMILES | Basophils [1] [%] | ESR [1] [mm/h] | Eosinophils [1] [%] | Hemoglobin [1] [g/L] | Ht [1] [%] | Lymphocytes [1] [%] | MCH [1] [pg] | MCHC [1] [g/L] | MCV [1] [fL] | Metamyelocytes [1] [%] | Monocytes [1] [%] | Myelocytes [1] [%] | Number of circulating neutrophils in peripheral blood versus control group [1] | PLT count [1] | Plasma cells [1] [%] | RBC count [1] | Rt [1] | Segmented neutrophils [1] [%] | Stab neutrophiles [1] [%] | WBC count [1] | further results |
| --- | --- | --- | --- | --- | --- | --- | --- | --- | --- | --- | --- | --- | --- | --- | --- | --- | --- | --- | --- | --- | --- |
| Fc1cc2c(cc1Cl)N=C(N1CCNCC1)c1ccccc1N2 [Desmethylfluoroclozapine, 11-(piperazine-1-yl)-7-fluoro-8-chloro-5H-dibenzo[b,e][1,4]diazepine] | 0.6 ± 0.3 | 4.2 ± 0.4 | 1.0 ± 0.5 | 153.4 ± 2.4 | 42.5 ± 0.5 | 66.6 ± 2.8 | 18.4 ± 0.1 | 360.8 ± 2.2 | 50.9 ± 0.2 | 0.0 ± 0.0 | 6.2 ± 1.0 | 0.0 ± 0.0 | did not differ so much different from that of the control group | 653.4 ± 29.8 10^9/l | 0.0 ± 0.0 | 8.35 ± 0.07 10^12/l | 75.6 ± 3.1 10^9/l | 21.4 ± 1.7 | 4.2 ± 0.4 | 11.7 ± 0.9 10^9/l | Concentrations of parent and metabolite in the brain [2]: consistent; Activity in relation to adrenergic receptors [3]: relatively weak activity; Kb (D2 dopamine receptors): 550 nM; Sedation: decrease in motor activity ([4]; oral, dose of 10 mg/kg): negligible decrease in motor activity; Kb (D4 dopamine receptors): 350 nM; Therapeutic window (Kb, D2/Kb, D4) (D4 dopamine receptors): 1.6; EC50 (H4 receptor): 2000 nM; IC50 (H1 receptor): 61 nM; Functional response on M1 receptor (agonism) (M1 receptors): is an agonist and causes a significant response in the therapeutic concentration range; Activating concentration relative to that of norclozapine (M4 muscarinic receptor; M4, agonism): 30 times; EC50 (M4 muscarinic receptor): 3200 nM; IC50 (M4 muscarinic receptor): > 10000 nM |
| CN1CCN(C2=Nc3cc(Cl)c(F)cc3Nc3ccccc32)CC1 [Fluoroclozapine, 11-(4-methylpiperazine-1-yl)-7-fluoro-8-chloro-5H-dibenzo[b,e][1,4]diazepine] | 1.0 ± 0.3 | 4.2 ± 0.4 | 0.8 ± 0.4 | 155.4 ± 2.1 | 43.2 ± 0.7 | 67.8 ± 2.4 | 18.4 ± 0.1 | 359.4 ± 1.9 | 51.3 ± 0.5 | 0.0 ± 0.0 | 6.4 ± 0.5 | 0.0 ± 0.0 | did not differ so much different from that of the control group | 666.4 ± 26.0 10^9/l | 0.0 ± 0.0 | 8.43 ± 0.07 10^12/l | 77.6 ± 4.6 10^9/l | 20.8 ± 1.5 | 3.2 ± 0.4 | 11.2 ± 0.8 10^9/l | Concentrations of parent and metabolite in the brain [2]: consistent; Metabolism [2]: is metabolized to desmethylfluoroclozapine in rats; Activity in relation to adrenergic receptors [3]: relatively weak activity; Kb (D2 dopamine receptors): 260 nM; Sedation: total distance traveled by animals ([4]; oral 1, 5 and 10 mg/kg): significantly lower; Kb (D4 dopamine receptors): 50 nM; Therapeutic window (Kb, D2/Kb, D4) (D4 dopamine receptors): 5.2; Restoration of PPI at a dose of 10 mg/kg ([5]; 10 mg/kg): comparable to clozapine activity at a dose of 5 mg/kg; Restoration of the PPI deficit caused by ketamine ([5]; doses of 5 and 10 mg/kg): statistically significant dose-dependent restoration of the PPI deficit; Inhibition of twitches induced by 5-OT [6]: most evident inhibition of twitches; EC50 (H4 receptor): 170 nM; IC50 (H1 receptor): 18 nM; Functional response on M1 receptor (agonism) (M1 receptors): virtually no effect on M1 receptors; EC50 (M4 muscarinic receptor): 16000 nM; IC50 (M4 muscarinic receptor): 4800 nM |
